The subject of data set [1] is HT-22. As to the kind of experiment: Neuroprotective activity against glutamate-induced neuronal cell death in mouse HT22 cells assessed as increase in cell viability after 24 hrs by MTT assay relative to control. The class given is functional, cell-based. (Tetrazolium assays rely on reduction of a dye to a coloured formazan, in cell work by metabolically active cells.)

In data set [2] the test system is HT-22. The data set is described as follows: Neuroprotective activity against glutamate-induced neuronal cell death in mouse HT22 cells assessed as increase in cell viability at 25 uM after 24 hrs by MTT assay relative to control. The class given is functional, cell-based.
The nature of data set [3]: Cytotoxicity against mouse HT22 cells assessed as cell viability at 10 uM after 24 hrs by MTT assay relative to control. As to conditions: read-out: Activity. The class given is cell-based, HT-22.
Data set [4] deals with HT-22. As to the kind of experiment: Neuroprotective activity against glutamate-induced neuronal cell death in mouse HT22 cells assessed as increase in cell viability at 1 to 25 uM after 24 hrs by MTT assay relative to control. The class given is functional, cell-based.
A short description of data set [5]: (§1) Cytotoxicity against mouse HT22 cells assessed as cell viability at 1 to 25 uM after 24 hrs by MTT assay relative to control. The data set is classed as cell-based, HT-22. As to conditions: HT22 cells, read-out: Activity.
For data set [6], the system named is HT-22. The description is as §1. The data set is classed as cell-based. The note with it: ht-22, 24 h, 25 µM.
Data set [7] is described as follows: Cytotoxicity against mouse HT22 cells assessed as cell viability at 25 uM after 24 hrs by MTT assay relative to control. The class given is cell-based, HT-22. The note with it: read-out: Activity.
Data set [8] concerns HT-22. The data set is described as follows: Neuroprotective activity against glutamate-induced neuronal cell death in mouse HT22 cells assessed as increase in cell viability at 10 uM after 24 hrs by MTT assay relative to control. The data set is classed as functional.
In data set [9] the test system is HT-22. As to the kind of experiment: Neuroprotective activity against t-BuOOH-induced neuronal cell death in mouse HT22 cells assessed as increase in cell viability at 1 to 100 uM after 20 hrs by MTT assay relative to control. The data set is classed as functional, cell-based.
A short description of data set [10]: Cytotoxicity against mouse HT22 cells assessed as reduction in cell viability at 25 uM after 24 hrs by MTT assay relative to control. The class given is cell-based, HT-22. As to conditions: read-out: INH.
Data set [11] in a line: Cytotoxicity against mouse HT22 cells assessed as reduction in cell viability at 10 uM after 24 hrs by MTT assay relative to control. As to conditions: read-out: INH. The class given is cell-based, HT-22.
For data set [12], the system named is HT-22. The data set is described as follows: Neuroprotective activity against glutamate-induced neuronal cell death in mouse HT22 cells assessed as increase in cell viability at 10 to 25 uM after 24 hrs by MTT assay relative to control. The class given is functional, cell-based.
Data set [13] is described as follows: Cytotoxicity against mouse HT22 cells assessed as cell viability at 1 uM after 24 hrs by MTT assay relative to control. The class given is cell-based, HT-22. The note with it: read-out: Activity.
Data set [14] concerns HT-22. As to the kind of experiment: Neuroprotective activity against glutamate-induced neuronal cell death in mouse HT22 cells assessed as increase in cell viability at 5 uM after 24 hrs by MTT assay relative to control. The data set is classed as functional.

Calls of active or inactive are those of the source. The calls are words filed in the database; no cut-off is given here.

On to `COc1cc(CCC(O)CCCCc2ccc(O)cc2)ccc1O` (centres undefined), for which the Activity entry in data set [1] was “Dose-dependent effect”. Besides, the result in data set [2] was Active. The viability at 24 h, 10 µM in data set [3] was 75%.
Regarding `CC(=O)/C=C/c1ccc(O)cc1`, in [4], the outcome was inactive. In data set [5], the viability at 24 h, up to 25 µM was determined as 50%.
`COc1cc(/C=C/C(O)=C/C(=O)/C=C/c2ccc(O)cc2)ccc1O` [DEMETHOXYCURCUMIN]: the outcome in [4] was inactive. For the same molecule, in data set [6], the Activity entry is recorded as “Toxic”.
In the case of `COc1cc(/C=C/C(C)=O)ccc1O`, the result in [4] was inactive.
Regarding `COc1cc(/C=C/C(=O)CCCCc2ccc(O)cc2)ccc1O`, in data set [1], the Activity entry was “Dose-dependent effect”. Also, in [3], the viability at 24 h, 10 µM came out at 68%.
For `COc1cc(CCCCC(O)CCc2ccc(O)cc2)ccc1O` (centres undefined), the outcome in data set [4] was inactive. In addition, the viability at 24 h, 10 µM in data set [3] stood at 74%.
In the case of `O=C(/C=C/c1ccc(O)cc1)CCCCc1ccc(O)cc1`, in data set [7], the viability at 24 h, 25 µM came to 25%. Also, the result in [4] was inactive. Moreover, the viability at 24 h, 10 µM in data set [3] came to 43%.
For the molecule `O=C(/C=C/c1ccc(O)c(O)c1)CCCCc1ccc(O)c(O)c1`, the result in [8] was inactive. Also, in data set [7], the viability at 24 h, 25 µM is 78%. Moreover, the outcome in [9] and in [2] was Active.
Consider `COc1cc(CCCCC(O)CCc2ccc(O)c(OC)c2)ccc1O` (centres undefined), for which the Activity result in data set [1] was “Dose-dependent effect”. In [2], the result was Active. For the same molecule, the viability at 24 h, 10 µM in data set [3] was determined as 73%.
As for `Oc1ccc(CCCCC(O)CCc2ccc(O)cc2)cc1` (racemic), the viability at 24 h, 25 µM in [7] is 25%. Further, in [4], the outcome was inactive. Further, in data set [3], the viability at 24 h, 10 µM was 43%.
Consider `COc1cc(CCCCC(=O)/C=C/c2ccc(O)cc2)ccc1O`, for which the result in [4] was inactive. Also, the viability at 24 h, 10 µM in data set [3] worked out at 67%.
As for `COc1cc(/C=C/C(=O)CC(=O)/C=C/c2ccc(O)c(OC)c2)ccc1O` [CURCUMIN], the cytotoxicity at 24 h, 25 µM in data set [10] came to 36%. Also, in data set [11], the cytotoxicity at 24 h, 10 µM was 18%.
Regarding `COc1ccc(CCCCC(=O)CCc2ccc(OC)c(OC)c2)cc1OC`, the viability at 24 h, 25 µM in data set [7] amounted to 43%. Besides, in data set [12], the result was inactive. In addition, in data set [13], the viability at 24 h, 1 µM worked out at 75%.
With `COc1cc(CCC(=O)CCCCc2ccc(O)cc2)ccc1O`, the Activity result in data set [1] is “Dose-dependent effect”. Besides, the result in [2] was Active. For the same molecule, in data set [5], the viability at 24 h, up to 25 µM turned out to be 37%.
Regarding `O=C(/C=C/c1ccc(O)c(O)c1)CC(=O)/C=C/c1ccc(O)c(O)c1` [DIDEMETHYLCURCUMIN], the Activity result in data set [6] is recorded as “Toxic”.
Regarding `O=C(CCCCc1ccc(O)cc1)CCc1ccc(O)cc1`, the viability at 24 h, 25 µM in [7] worked out at 25%. Besides, the viability at 24 h, 10 µM in [3] was 43%.
For `COc1cc(CCCCC(=O)CCc2ccc(O)cc2)ccc1O`, in data set [4], the outcome was inactive. The viability at 24 h, 10 µM in data set [3] was 71%.
Regarding `COc1cc(CCCCC(=O)CCc2ccc(O)c(OC)c2)ccc1O`, the Activity entry in [1] was “Dose-dependent effect”. In addition, the result in data set [2] was Active. Further, the viability at 24 h, 10 µM in data set [3] turned out to be 70%.
Regarding `O=C(/C=C/c1ccc(O)cc1)CC(=O)/C=C/c1ccc(O)cc1` [BISDEMETHOXYCURCUMIN], the Activity result in data set [6] was “Toxic”.
As for `COc1cc(/C=C/C(=O)CCCCc2ccc(O)c(OC)c2)ccc1O`, the values for the Activity in [8], in data set [1] and in data set [14] were 62%, “Dose-dependent effect” and 47%, respectively. Moreover, the outcome in data set [9] was inactive. In data set [3], the viability at 24 h, 10 µM was 66%.

Values taken from ChEMBL document CHEMBL3352561, “Synthesis of natural and non-natural curcuminoids and their neuroprotective activity against glutamate-induced oxidative stress in HT-22 cells” (J Nat Prod, 2014).
